Assay results from ChEMBL document CHEMBL1201862, “PubChem BioAssay data set” (2004).
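In this assay, cells in 96-well plates receive the compound at five concentrations for 48 hours. Endpoints are linearly interpolated between the surrounding concentrations. GI50 is the concentration that inhibits growth by half.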 Calls of active or inactive are those of the source. No stated cut-off is given here; in the data, active = GI50 up to about 1.1 µM and inactive = higher.

How the values were obtained:
Assay in all cases: growth of human tumour cells (NCI), 48 h
SK-OV-3 = test system: SK-OV-3
OVCAR-8 = test system: OVCAR-8
ACHN = test system: ACHN
NCI-H460 = test system: NCI-H460
SR = test system: SR
A498 = test system: A498
SK-MEL-28 = test system: SK-MEL-28
K562 = test system: K562
M14 = test system: M14
DU-145 = test system: DU-145
Malme-3M = test system: Malme-3M
SW-620 = test system: SW-620
NCI-H226 = test system: NCI-H226
A549 = test system: A549
HOP-62 = test system: HOP-62
EKVX = test system: EKVX
UACC-257 = test system: UACC-257
TK-10 = test system: TK-10
RXF 393 = test system: RXF 393

Measured: GI50

C=C1CCC2CC1C(C(=O)c1c[nH]c3ccccc13)=NC2(C)C (stereo not given)
inactive: SK-OV-3 > 100 µM | OVCAR-8 > 100 µM | ACHN > 100 µM | NCI-H460 > 100 µM | SR > 100 µM | A498 > 100 µM | SK-MEL-28 > 100 µM | K562 92.7 µM | M14 > 100 µM | DU-145 > 100 µM | Malme-3M > 100 µM | SW-620 > 100 µM | NCI-H226 > 100 µM | A549 > 100 µM | HOP-62 > 100 µM | EKVX 77.3 µM | UACC-257 > 100 µM

Oc1ccc(Cc2cc(Cc3ccc(O)cc3)cc(Cc3ccc(O)cc3)c2)cc1
inactive: SK-OV-3 > 50 µM | OVCAR-8 > 50 µM | ACHN > 50 µM | NCI-H460 > 50 µM | SR > 50 µM | A498 > 50 µM | SK-MEL-28 > 50 µM | K562 > 50 µM | M14 > 50 µM | DU-145 > 50 µM | Malme-3M > 50 µM | SW-620 > 50 µM | NCI-H226 > 50 µM | A549 > 50 µM | HOP-62 > 50 µM | EKVX > 50 µM | TK-10 > 50 µM | UACC-257 > 50 µM

Cn1c(=O)oc2nc(-c3ccccc3)cc(C(F)(F)F)c21
inactive: SK-OV-3 > 100 µM | OVCAR-8 > 100 µM | ACHN > 100 µM | NCI-H460 > 100 µM | SR 44.6 µM | A498 39.2 µM | SK-MEL-28 > 100 µM | M14 > 100 µM | DU-145 > 100 µM | SW-620 > 100 µM | NCI-H226 > 100 µM | A549 > 100 µM | HOP-62 > 100 µM | EKVX > 100 µM | TK-10 > 100 µM | UACC-257 > 100 µM

C=C/C(C)=C\CC1[C@](C)(O)CC[C@H]2C(C)(C)C(O)CC[C@]12C (stereo not given in full)
inactive: OVCAR-8 > 100 µM | ACHN > 100 µM | NCI-H460 78.2 µM | SR 40.8 µM | A498 > 100 µM | SK-MEL-28 > 100 µM | K562 34.4 µM | M14 > 100 µM | RXF 393 95.1 µM | DU-145 > 100 µM | Malme-3M > 100 µM | SW-620 > 100 µM | NCI-H226 > 100 µM | A549 > 100 µM | EKVX > 100 µM | TK-10 > 100 µM | UACC-257 > 100 µM

CN(C)CCCOCCn1c2c(c3ccccc31)CCCC2
inactive: SK-OV-3 > 10 µM | OVCAR-8 17.5 µM | ACHN 15.2 µM | NCI-H460 15 µM | SR 18.1 µM | SK-MEL-28 16.6 µM | K562 12.9 µM | M14 15.7 µM | DU-145 27.9 µM | Malme-3M 18 µM | SW-620 18.7 µM | NCI-H226 29.6 µM | A549 17 µM | HOP-62 14.7 µM | EKVX 21.9 µM | TK-10 18.4 µM | UACC-257 18.2 µM

Cc1cc2c(cc1C(=O)c1ccc(N)cc1)OCO2
inactive: SK-OV-3 24.5 µM | OVCAR-8 > 100 µM | ACHN > 100 µM | NCI-H460 33.7 µM | SR 5.08 µM | K562 24.9 µM | M14 29.4 µM | DU-145 55 µM | Malme-3M 33.8 µM | SW-620 34.8 µM | A549 39.6 µM | HOP-62 58.7 µM | EKVX 31 µM | TK-10 28.2 µM | UACC-257 > 100 µM

O=C(O)CN1CCN(CC(=O)N2CCN(C(=O)OCc3ccccc3)CC2)CCN(CC(=O)O)CCN(CC(=O)N2CCN(C(=O)OCc3ccccc3)CC2)CC1
inactive: SK-OV-3 > 100 µM | OVCAR-8 > 100 µM | ACHN > 100 µM | NCI-H460 > 100 µM | SR > 100 µM | A498 > 100 µM | SK-MEL-28 > 100 µM | K562 > 100 µM | M14 > 100 µM | DU-145 > 100 µM | Malme-3M > 100 µM | SW-620 > 100 µM | NCI-H226 > 100 µM | A549 > 100 µM | HOP-62 > 100 µM | EKVX > 100 µM | TK-10 > 100 µM | UACC-257 > 100 µM

N#Cc1c(Cl)c(C=O)c(=O)n2c1[nH]c1ccccc12
inactive: SK-OV-3 > 100 µM | OVCAR-8 42.1 µM | ACHN 84.3 µM | NCI-H460 > 100 µM | SR 10 µM | A498 31.7 µM | SK-MEL-28 63.1 µM | K562 56.8 µM | M14 28.4 µM | DU-145 50.4 µM | Malme-3M 26.4 µM | SW-620 77.4 µM | NCI-H226 24.7 µM | A549 > 100 µM | HOP-62 39 µM | EKVX > 100 µM | TK-10 > 100 µM | UACC-257 56.8 µM

CC(=O)NS(=O)(=O)c1ccc(NCc2cccc3c(=O)c4ccc(Cl)cc4oc23)cc1
inactive: SK-OV-3 > 53.8 µM | OVCAR-8 16.9 µM | ACHN 38.5 µM | NCI-H460 19.7 µM | A498 41.9 µM | SK-MEL-28 73.8 µM | K562 6.14 µM | M14 41.1 µM | RXF 393 20.4 µM | DU-145 61 µM | Malme-3M 26.4 µM | SW-620 34 µM | NCI-H226 93.3 µM | A549 > 80.9 µM | HOP-62 39.1 µM | EKVX 38.3 µM | TK-10 > 63.4 µM | UACC-257 > 56.6 µM

Cc1ccc([S+]([O-])CC(CF)OCn2cc(C)c(=O)[nH]c2=O)cc1 (stereo not given)
inactive: SK-OV-3 > 100 µM | OVCAR-8 > 100 µM | ACHN > 100 µM | NCI-H460 > 100 µM | SR > 100 µM | SK-MEL-28 > 100 µM | M14 > 100 µM | DU-145 > 100 µM | Malme-3M > 100 µM | SW-620 > 100 µM | NCI-H226 > 100 µM | A549 > 100 µM | HOP-62 > 100 µM | TK-10 > 100 µM

O=c1[nH]nc(Cc2ccccc2)n1/N=C/c1ccc([N+](=O)[O-])o1
inactive: SK-OV-3 15.4 µM | OVCAR-8 2.16 µM | ACHN 3.4 µM | NCI-H460 3.46 µM | A498 7.41 µM | SK-MEL-28 2.2 µM | K562 4.09 µM | M14 2.24 µM | RXF 393 1.88 µM | DU-145 3.77 µM | Malme-3M 1.51 µM | SW-620 1.39 µM | NCI-H226 12.5 µM | A549 4.1 µM | HOP-62 3.08 µM | EKVX 3.77 µM | TK-10 4.36 µM | UACC-257 3.56 µM

CCOC(=O)c1cc(-c2ccc(Cl)cc2)c([N+](=O)[O-])n1C
inactive: SK-OV-3 > 10 µM | OVCAR-8 > 10 µM | ACHN > 10 µM | NCI-H460 > 10 µM | SR 5.08 µM | K562 > 10 µM | M14 > 10 µM | DU-145 > 10 µM | Malme-3M > 10 µM | NCI-H226 > 10 µM | A549 > 10 µM | EKVX > 10 µM | TK-10 > 10 µM | UACC-257 > 10 µM
